Assay results from patent US8563547B2, “(6,7-dihydro-2-nitro-5H-imidazol[2,1-b][1,3]oxazin-6-yl) amide compounds, preparation methods and uses thereof” (Shanghai Sun-Sail Pharmaceutical Science & Technology Co., …, priority 2010, dated 2013).
≈ marks a conversion by molar mass, not a printed value. Where two headings read alike, the source gives them in different places.

Key:
physchem = assay type: physicochemical; settings: for solubility at 3 days: pH 1.2, simulated gastric fluid, thermodynamic from solid
Experimental: 3-5 mg tested compound was added to 0.5 mL pH=1.2 HCL aqueous solution, shook for 3 days in a shaker, samples were centrifuged at 10000 r/min for 5 min, aspirated […] supernatant to 50 mL volumetric flask, added water and metered volume to the mark to make sample solution; precisely weighted 2.6 mg sample to 50 mL volumetric flask, added an appropriate amount of methanol to dissolve. Added water and metered volume to the mark, shook up to give control sample solution. Loaded 20 μL sample solution and control sample solution respectively, tested for liquid phase. Calculated as follows: Solubility (mg/mL)=C(control)*25*A(sample)/A(control)
C(control): the concentration of control sample
A(sample): peak area of liquid phase of sample solution
A(control): peak area of liquid phase of control sample solution

[1] = system: Mycobacterium tuberculosis strain H37Rv; assay: Activity test for Mycobacterium tuberculosis (MIC, liquid medium, 96-well microplate); assay type: cell-based; settings: for MIC: Mycobacterium tuberculosis, liquid medium, 37° C., read-out: Minimal inhibitory concentration for H37Rv; for activity for H37Rv, times as that of PA-824: relative to PA-824; for MIC for H37Rv, times as that of ethambutol: relative to ethambutol
Experimental: Tested Mycobacterium tuberculosis strain H37Rv was transferred to liquid medium, cultured for 2 weeks at 37° C., drew a little culture liquid of bacterium and placed into 4 mL liquid medium, added 10˜20 sterile glass bead of 2˜3 diameter, shook for 20˜30S, absolute-rest precipitated for 10˜20 min, aspirated bacterium suspension supernatant, turbidity was adjusted to 1 Maxwell unit with liquid medium, equivalent to 1×10^7CFU/mL for use. Each drug was dissolved to 1 mg/mL by adding an appropriate amount of DMSO, filtered through 0.22 μm filter. Again diluted to the required experimental concentration with liquid medium. The final concentration of test drugs were set as follows: 0.001 μg/mL, 0.002 μg/mL, 0.004 μg/mL, 0.008 μg/mL, 0.015 μg/mL, 0.03 μg/mL, 0.06 μg/mL, 0.12 μg/mL, 0.25 μg/mL, 0.5 μg/mL, 1 μg/mL, 2 μg/mL, 4 μg/mL, 8 μg/mL and 16 μg/mL, there totally are 15 concentration gradients. 100 μL of each above-mentioned drug solution was added to 96-well microplate, further added 100 μL […] bacteria liquid so that drug concentration could reach the set final concentration, cultured at 37° C. The same drug dilution was done in triplate in parallel, control group didn't added drug, inoculation amount was set to 100%, 10% and 1% respectively. Minimal inhibitory concentration (MIC) for Mycobacterium tuberculosis by each drug was observed, and compared with MIC results of first-line antituberculosis drug ethambutol and PA-824 in clinical research phase at the same time.

[2] = Drug metabolism test: pharmacokinetics in mice; assay type: in vivo, ICR mice; settings: for MRT last: read-out: MRT0-t
Experimental: (§1) 16 healthy male ICR mice with 18-22 g of body weight were used. Drugs were employed by intravenous or gavage administration, administration doses were 5 mg and 25 mg/kg, administration volume was 10 mL/kg. Fasted for 12 h before test with free access to water. Uniformly fed at 2 h after administration. 0.3 mL blood was drawn through mice post-glomus venous plexus according to set time points, placed in heparinized test tube, centrifuged at 3000 r/min for 10 min, separated plasma, frozen in refrigerator at −20° C. When detected, samples were treated according to plasma sample treatment method, drug concentration in plasma was determined by LC-MS method, and calculated its pharmacokinetic parameters.

[3] = Tissue distribution test in mice; assay type: in vivo; settings: orally administrated 25 mg/kg
Experimental: as §1
After compound 1 was orally administrated to mice (25 mg/kg), the concentrations of the compound in […], lung, brain and plasma at different time was shown as FIG. 1.

[4] = male, ICR, mouse, IV (5 mg/kg), plasma
[5] = male, ICR, mouse, PO (25 mg/kg), plasma

Row | SMILES | water-solubility, times as that of PA-824 (physchem) [times] | solubility at 3 days (physchem) [µg/mL] | MIC [1] [µg/mL] | activity for H37Rv, times as that of PA-824 [1] [times] | MIC for H37Rv, times as that of ethambutol [1] [times] | other results
1 | O=C(CCCN1CC(Oc2ccc(OC(F)(F)F)cc2)C1)N[C@@H]1COc2nc([N+](=O)[O-])cn2C1 [Compound 26, 4-(3-(4-(trifluoromethoxy)phenoxy)azetidin-1-yl)-N-((S)-6,7-dihydro-2-nitro-5H-imidazo [2,1-b][1,3]oxazin-6-yl)butyramide] | 90 | 846 (≈ 1740 µM) | 0.03 (≈ 0.0618 µM) | 4 | 16 | 
2 | O=C(CN1CCC(Oc2ccc(OC(F)(F)F)cc2)CC1)N[C@@H]1COc2nc([N+](=O)[O-])cn2C1 [Compound 1, (S)-N-(6,7-dihydro-2-nitro-5H-imidazo [2,1-b][1,3]oxazin-6-yl)-2-(4-(4-(trifluoromethoxy)phenoxy)piperid-1-yl)acetamide] | 79 | 746 (≈ 1540 µM) | 0.03 (≈ 0.0618 µM) | 4 | 16 | CLz ([2]; IV (5 mg/kg)): 10.7 mL/min/kg; AUC(0-inf) [2, 4]: 7860 ng·h/mL; AUC(0-t) [2, 4]: 7850 ng·h/mL; Cmax [2, 4]: 3880 ng/mL; half-life [2, 4]: 2.8 h; MRT last [2, 4]: 3.6 h; AUC(0-inf) [2, 5]: 40200 ng·h/mL; AUC(0-t) [2, 5]: 40100 ng·h/mL; Cmax [2, 5]: 4790 ng/mL; Tmax [2, 5]: 1 h; half-life [2, 5]: 2.7 h; MRT last [2, 5]: 5 h; Vd ([2]; male, ICR, mouse, plasma, IV (5 mg/kg), read-out: Vz): 2.3 L/kg; bioavailability ([2]; male, ICR, mouse, plasma, PO 25 mg/kg vs IV 5 mg/kg, read-out: F (oral bioavailability)): 102%; site of major distribution [3]: lung and spleen; tissue distribution property ([3]; FIG. 1): good tissue distribution property
3 | CC[C@@H](CO)NCCN[C@@H](CC)CO [ethambutol, reference compound] |  |  | 0.5 (≈ 2.45 µM) |  |  | 
4 | O=[N+]([O-])c1cn2c(n1)OC[C@@H](OCc1ccc(OC(F)(F)F)cc1)C2 [PA-824, reference compound] |  | 9.4 (≈ 26.2 µM) | 0.12 (≈ 0.334 µM) |  |  | 
5 | O=C(CN1CCN(Cc2ccc(OC(F)(F)F)cc2)CC1)N[C@@H]1COc2nc([N+](=O)[O-])cn2C1 [Compound 17, (S)-N-(6,7-dihydro-2-nitro-5H-imidazo [2,1-b][1,3]oxazin-6-yl)-2-(4-(4-(trifluoromethoxy)benzyl)piperazin-1-yl)acetamide] | 155 | 1460 (≈ 3010 µM) | 0.12 (≈ 0.248 µM) |  |  | 
6 | CC(C)Oc1ccc(OC2CCN(CC(=O)N[C@@H]3COc4nc([N+](=O)[O-])cn4C3)CC2)cc1 [Compound 14] |  |  | 0.06 (≈ 0.131 µM) | 2 | 8 | 
7 | O=C(CN1CCC(Oc2ccc(OC(F)(F)F)c(F)c2)CC1)N[C@@H]1COc2nc([N+](=O)[O-])cn2C1 [Compound 3, 2-(4-(3-fluoro-4-(trifluoromethoxy)phenoxy)piperid-1-yl)-N-((S)-6,7-dihydro-2-nitro-5H-imidazo[2,1-b][1,3]oxazin-6-yl)acetamide] |  |  | 0.06 (≈ 0.119 µM) | 2 | 8 | 
8 | O=C(CN1CCC(Oc2ccc(OCCOC3CC3)cc2)CC1)N[C@@H]1COc2nc([N+](=O)[O-])cn2C1 [Compound 16, (S)-2-(4-(4-(2-(cyclopropoxy)ethoxy)phenoxy)piperid-1-yl)-N-(2-nitro-6,7-dihydro-5H-imidazo [2,1-b][1,3]oxazin-6-yl)acetamide] |  |  | 0.03 (≈ 0.0598 µM) | 4 | 16 | 
9 | O=C(CCN1CCC(Oc2ccc(OC(F)(F)F)cc2)CC1)N[C@@H]1COc2nc([N+](=O)[O-])cn2C1 [Compound 22, (S)-N-(6,7-dihydro-2-nitro-5H-imidazo [2,1-b][1,3]oxazin-6-yl)-3-(4-(4-(trifluoromethoxy)phenoxy)piperid-1-yl)propanamide] | 72 | 677 (≈ 1360 µM) | 0.06 (≈ 0.12 µM) | 2 | 8 | 
